Data reported in US8703786B2, “Etravirine formulations and uses thereof” (priority 2011, dated 2014).
Values after ≈ are worked out from the molar mass of the structure shown. Where two headings read alike, the source gives them in different places.

Assays:
[1] = cited from earlier work
[2] = Pharmacokinetic / oral bioavailability study in rats (LC-MS/MS of plasma); format: in vivo; settings: male, Sprague-Dawley, rat
Protocol: Male Sprague-Dawley rats (250-350 g, Harlan Laboratory Inc., Indianapolis, Ind.) were housed in stainless steel cages and had free access to food and water. They were acclimated to the animal care facility for at least 7 days before the start of the study. To facilitate the withdrawal of timed, multiple blood samples from each animal, the right jugular vein of each animal was cannulated one day prior to drug administration. The cannulas were flushed daily with 0.5 mL sterile heparinized saline (100 units/ml). Under ketamine:acetopromazine:xylazine (50:3.3:3.3 mg/kg ip) anesthesia, silicone elastomer tubing (0.02×0.037 in) was inserted into the jugular vein, secured with a silk suture, and exteriorized in the dorsal infrascapular area. The surgical incision was prophylactically treated with nitrofurazone wound powder and closed with surgical staples.
Animals were allowed free access to food and water at all times. The jugular veins of the rats were cannulated under anesthesia the day before the study. All in vivo studies were initiated between 8:00 am and 9:00 am to eliminate possible circadian variation. The animals were fasted overnight with water allowed ad libitum before oral dosing.
The in vivo study consists of four rat groups. […] The second group is a reference group (n=5) which was given an oral 200 mg/kg administration of a suspension of the commercial Intelence® tablets in 1% Tween 80. […] Oral administration was performed using an animal feeding needle (18 in.×3 in. W; 2¼ mm Ball). Multiple blood samples (0.25 mL) were collected (from the jugular vein cannula) immediately before dosing and at 0.5, 1, 1.5, 2, 3, 4, 5, 6, 8, 10 and 24 hours after dosing. An aliquot of each plasma sample was stored at −70° C. pending LC-MS/MS assay.
Etravirine concentrations in rat plasma was analyzed using a sensitive and accurate liquid chromatographic-tandem mass spectrometry (LC-MS/MS) method developed in the laboratory (10). […] The column effluent was monitored using a 3200 QTRAP® mass spectrum, which is a hybrid triple quadruple linear ion trap equipped with a Turbolonspray ion source. […]

[3] = system: plasma proteins; settings: cited from earlier work
[4] = Solubility of etravirine in various media by phase solubility analysis (HPLC-UV); format: physicochemical; settings: for solubility at 72 h: thermodynamic from solid
Protocol: The solubility of etravirine was determined in water, various oils and some organic solvents by phase solubility analysis. Excess drug was added into 20 ml screw-capped scintillation vials containing 5 ml of the tested solvents. The vials were rotated end-over-end at a constant speed on shaker (EBERBACH Corporation, Ann Arbor, Mich.) at room temperature for 3 days (72 hours). The samples were then subjected to centrifugation on a laboratory centrifuge at 13,000 rpm for 15 minutes. Aliquot of the supernatant was diluted with DMSO to the proper concentration before they were analyzed by high-performance liquid chromatography (HPLC) using UV detector.
The HPLC system involved Waters 600 pump, 2487 UV detector and 717 plus auto sampler (Waters Corporation, Milford, Mass.). Separations were done on a 4.6×150 mm, 3.5 μm XTerra MS-C18 column (Waters Corporation, Milford, Mass.). The flow rate was set at 1 ml/min and the wavelength at 304 nm. Chromatographic data acquisition, peak integration and quantification were performed using the Empower software package by Waters Corporation. Mobile phase solution A consisted of 20 mM potassium dihydrogen phosphate aqueous solution and solution B consisted of acetonitrile (40% solution A+60% solution B). pH was adjusted to 3.2 using phosphoric acid. Solvents were regularly prepared prior to each series of analysis.

[5] = target: p-gp (Homo sapiens, UniProt P08183); settings: in vitro; read-out: apparent IC50 (inhibitor of p-gp); cited from earlier work
[6] = cited from earlier work; for Biopharmaceutics Classification System class: low water solubility and permeability

Sequence of p-gp (P08183 whole entry): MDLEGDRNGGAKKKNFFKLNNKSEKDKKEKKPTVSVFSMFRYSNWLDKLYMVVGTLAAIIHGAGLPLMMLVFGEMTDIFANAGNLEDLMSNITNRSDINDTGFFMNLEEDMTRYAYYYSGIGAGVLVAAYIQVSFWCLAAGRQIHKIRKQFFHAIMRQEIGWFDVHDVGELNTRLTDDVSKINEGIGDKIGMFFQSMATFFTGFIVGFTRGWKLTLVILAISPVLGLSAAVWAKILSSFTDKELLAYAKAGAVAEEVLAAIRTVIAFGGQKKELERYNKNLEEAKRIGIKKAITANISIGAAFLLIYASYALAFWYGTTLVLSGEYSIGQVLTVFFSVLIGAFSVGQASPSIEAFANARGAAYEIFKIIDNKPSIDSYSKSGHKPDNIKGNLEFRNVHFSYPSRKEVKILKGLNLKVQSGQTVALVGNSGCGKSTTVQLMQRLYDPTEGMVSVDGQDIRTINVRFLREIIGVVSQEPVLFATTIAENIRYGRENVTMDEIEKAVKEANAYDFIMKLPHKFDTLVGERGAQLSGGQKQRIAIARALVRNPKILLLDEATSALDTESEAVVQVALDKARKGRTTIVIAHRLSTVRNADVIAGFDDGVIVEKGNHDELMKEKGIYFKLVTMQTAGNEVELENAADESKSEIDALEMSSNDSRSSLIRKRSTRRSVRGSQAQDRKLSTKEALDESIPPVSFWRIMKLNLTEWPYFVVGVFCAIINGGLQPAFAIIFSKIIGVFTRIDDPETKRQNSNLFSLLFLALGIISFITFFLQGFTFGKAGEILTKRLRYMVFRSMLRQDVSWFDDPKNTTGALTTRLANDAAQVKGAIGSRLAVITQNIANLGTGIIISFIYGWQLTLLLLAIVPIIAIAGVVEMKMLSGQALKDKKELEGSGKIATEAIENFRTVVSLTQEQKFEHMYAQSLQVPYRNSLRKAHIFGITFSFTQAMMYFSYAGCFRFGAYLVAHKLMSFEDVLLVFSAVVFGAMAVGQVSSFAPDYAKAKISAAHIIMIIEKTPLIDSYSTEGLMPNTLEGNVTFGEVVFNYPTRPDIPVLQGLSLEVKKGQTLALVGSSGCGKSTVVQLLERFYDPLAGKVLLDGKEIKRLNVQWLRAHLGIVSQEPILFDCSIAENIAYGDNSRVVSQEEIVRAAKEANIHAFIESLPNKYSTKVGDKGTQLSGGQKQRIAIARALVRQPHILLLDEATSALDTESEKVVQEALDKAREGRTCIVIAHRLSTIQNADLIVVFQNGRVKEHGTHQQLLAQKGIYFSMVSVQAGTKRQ

AUC ([2]; IV 2.5 mg/kg): 1660 ± 498 ng·h/mL
Cmax ([2]; IV 2.5 mg/kg (solution in DMSO)): 2360 ± 1120 ng/mL
half-life ([2]; IV 2.5 mg/kg, read-out: T1/2 (terminal biological half-life) (converted)): 1.14 ± 0.91 h
solubility at 72 h ([4]; distilled water, water, read-out: intrinsic solubility): 3.9 µg/mL (≈ 0.00896 mM)
solubility (descriptive) ([4]; in DMSO and 1-methyl-2-pyrrolidinone): freely soluble
solubility (descriptive) ([4]; in PEG 400, Tween 80, Cremophore EL, Tween 20, and Labrasol): soluble
solubility (descriptive) ([4]; in corn oil, soybean oil and olive oil): very slightly soluble
solubility (descriptive) ([4]; in peanut oil, Caproyl 90): slightly soluble
solubility (descriptive) ([4]; in water): practically insoluble
solubility at 72 h ([4]; oil or lipid, Caproyl 90, room temperature, read-out: Drug Solubility): 5420 ± 60 µg/mL (≈ 12.5 mM)
solubility at 72 h ([4]; oil or lipid, Coriander Oil, room temperature, read-out: Drug Solubility): 740 µg/mL (≈ 1.7 mM)
solubility at 72 h ([4]; oil or lipid, Corn Oil, room temperature, read-out: Drug Solubility): 420 µg/mL (≈ 0.965 mM)
solubility at 72 h ([4]; oil or lipid, Labrafac CC, room temperature, read-out: Drug Solubility): 1040 ± 10 µg/mL (≈ 2.39 mM)
solubility at 72 h ([4]; oil or lipid, Lavender Oil, room temperature, read-out: Drug Solubility): 1230 µg/mL (≈ 2.83 mM)
solubility at 72 h ([4]; oil or lipid, Linseed Oil, room temperature, read-out: Drug Solubility): 790 µg/mL (≈ 1.81 mM)
solubility at 72 h ([4]; oil or lipid, Mineral Oil, room temperature, read-out: Drug Solubility): 4 µg/mL (≈ 0.00919 mM)
solubility at 72 h ([4]; oil or lipid, Olive Oil, room temperature, read-out: Drug Solubility): 220 µg/mL (≈ 0.505 mM)
solubility at 72 h ([4]; oil or lipid, Paraffin Oil, room temperature, read-out: Drug Solubility): 9 µg/mL (≈ 0.0207 mM)
solubility at 72 h ([4]; oil or lipid, Peanut Oil, room temperature, read-out: Drug Solubility): 2190 µg/mL (≈ 5.03 mM)
solubility at 72 h ([4]; oil or lipid, Pluro oleique CC 497, room temperature, read-out: Drug Solubility): 1040 ± 20 µg/mL (≈ 2.39 mM)
solubility at 72 h ([4]; oil or lipid, Soybean Oil, room temperature, read-out: Drug Solubility): 310 µg/mL (≈ 0.712 mM)
solubility at 72 h ([4]; organic solvent or mixture, 1-methyl-2-pyrrolidinone, room temperature, read-out: Drug Solubility): 458000 µg/mL (≈ 1050 mM)
solubility at 72 h ([4]; organic solvent or mixture, Cremophore EL, room temperature, read-out: Drug Solubility): 46000 ± 690 µg/mL (≈ 106 mM)
solubility at 72 h ([4]; organic solvent or mixture, Labrasole, room temperature, read-out: Drug Solubility): 61000 µg/mL (≈ 140 mM)
solubility at 72 h ([4]; organic solvent or mixture, PEG 400, room temperature, read-out: Drug Solubility): 71600 µg/mL (≈ 164 mM)
solubility at 72 h ([4]; organic solvent or mixture, Tween 20, room temperature, read-out: Drug Solubility): 55800 ± 870 µg/mL (≈ 128 mM)
solubility at 72 h ([4]; organic solvent or mixture, Tween 80, room temperature, read-out: Drug Solubility): 49700 ± 410 µg/mL (≈ 114 mM)
solubility at 72 h ([4]; Water, room temperature, read-out: Drug Solubility): 3.97 µg/mL (≈ 0.00912 mM)
SMILES: Cc1cc(C#N)cc(C)c1Oc1nc(Nc2ccc(C#N)cc2)nc(N)c1Br [Etravirine, 4-[[6-amino-5-bromo-2-[(4-cyanophenyl)amino]-4-pyrimidinyl]oxy]-3,5-dimethyl benzonitrile]
time of median peak concentration ([1]; fasted oral administration): approximately 4.0 hours
terminal elimination half-life in plasma ([1]; in vivo): 30 to 40 h
binding to plasma proteins [3]: highly bound
IC50 [5]: 24.2 µM
solubility in PEG 400 reported in the scientific literature ([6]; PEG 400): 74000 µg/mL (≈ 170 mM)
ionization constant (pka) [6]: 3.75
octanol:water partition coefficient (logP) [6]: greater than 5
Biopharmaceutics Classification System class [6]: class IV
Biopharmaceutics Classification System class ([6]; listed as etravirine): class IV
